Assay [1] deals with T1, aryl hydrocarbon receptor (AHR) (Mus musculus, UniProt P30561).
T1 construct: native AHR from mouse liver cytosol, immobilized on plate with anti-AHR antibody
T1 sequence (P30561 10-848): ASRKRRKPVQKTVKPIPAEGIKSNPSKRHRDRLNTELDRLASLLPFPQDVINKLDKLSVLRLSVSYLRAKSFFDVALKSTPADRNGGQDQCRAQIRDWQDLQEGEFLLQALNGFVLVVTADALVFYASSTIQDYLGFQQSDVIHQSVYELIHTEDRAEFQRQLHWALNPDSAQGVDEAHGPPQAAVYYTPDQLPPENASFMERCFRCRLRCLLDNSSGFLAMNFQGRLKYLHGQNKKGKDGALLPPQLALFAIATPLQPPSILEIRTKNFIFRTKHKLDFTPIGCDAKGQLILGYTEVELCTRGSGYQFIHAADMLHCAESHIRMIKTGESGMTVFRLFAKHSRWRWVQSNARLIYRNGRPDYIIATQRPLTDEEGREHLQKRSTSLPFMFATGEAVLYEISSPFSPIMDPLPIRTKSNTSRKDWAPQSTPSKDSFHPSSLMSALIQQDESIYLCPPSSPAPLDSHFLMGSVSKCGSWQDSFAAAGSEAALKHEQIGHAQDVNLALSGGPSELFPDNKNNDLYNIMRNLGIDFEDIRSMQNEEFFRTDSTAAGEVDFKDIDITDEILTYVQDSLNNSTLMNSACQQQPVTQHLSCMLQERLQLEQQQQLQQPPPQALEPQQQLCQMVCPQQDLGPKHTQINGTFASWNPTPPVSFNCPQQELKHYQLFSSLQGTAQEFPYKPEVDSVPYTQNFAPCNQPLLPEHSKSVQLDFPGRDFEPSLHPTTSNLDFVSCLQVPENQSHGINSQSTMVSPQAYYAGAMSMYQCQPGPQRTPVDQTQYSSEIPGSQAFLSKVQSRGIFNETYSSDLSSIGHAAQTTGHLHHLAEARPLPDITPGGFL
The assay can be described thus: competition radioligand binding with [3-H]-3-MC on antibody-immobilized AHR.

The target in assay [2] is T1, aryl hydrocarbon receptor (AHR). The assay can be described thus: competition radioligand binding, unlabeled 3-MC versus [3-H]-3-MC on antibody-immobilized AHR. The source says: competition radioligand binding, unlabeled 3-MC versus [3-H]-3-MC on antibody-immobilized AHR on aryl hydrocarbon receptor (AHR) | Competition of tranilast or unlabeled 3-MC with [3-H]-3-MC for binding to plate-immobilized AHR from mouse liver cytosol

Data on 2 compounds can be found in PMC2972222, “Breast Cancer Stem-Like Cells Are Inhibited by a Non-Toxic Aryl Hydrocarbon Receptor Agonist” (PLoS ONE, 2010).

Usually Ki stands for a dissociation constant, usually derived from enzyme kinetics or from competition with a known ligand.

Compound `COc1ccc(/C=C/C(=O)Nc2ccccc2C(=O)O)cc1OC` [tranilast, N-[3,4-dimethoxycinnamoyl]anthranilic acid] came in with a Ki in assay [1] of 44 µM. On to `Cc1ccc2cc3c(ccc4ccccc43)c3c2c1CC3` [3-methylcholanthrene], for which the Ki in assay [2] came to 0.035 µM.
